Consider five molecules from PMC11859928, “Design, Synthesis, and Antiproliferative Activity of Novel Indole/1,2,4-Triazole Hybrids as Tubulin Polymerization Inhibitors” (Pharmaceuticals, 2025).

For orientation: inhibition means the change of the read-out against control, counted positive when it falls.

One experiment relates to NCI 60 cell lines. Nature of the experiment: NCI one-dose assay, full panel. The note with it: for anticancer activity (in words): across all cell lines, 10 µM. The format is cell-based, human. How it is done:
(§1) The National Cancer Institute (NCI), Bethesda, USA, selected the final compounds 6a–j and 7a–j for in vitro anticancer screening. An initial in vitro single-dose anticancer experiment was performed with the entire NCI 60 cell lines derived from nine tumor subpanel cancer cell lines. The results for each compound were illustrated as a mean graph showing the percentage growth of treated cells compared to untreated control cells (see Supplementary Materials).
(§2) The NCI anticancer screening process has been thoroughly detailed. The Drug Evaluation Branch of the National Cancer Institute in Bethesda, […], USA, established the procedure and conducted the anticancer assay on 60 human tumor cell lines from nine neoplastic cancers.

The subject of a further experiment is HOP-92. In words: NCI one-dose assay. It counts as cell-based, human. The note with it: Homo sapiens, HOP-92, HOP-92, Non-small cell lung cancer, read-out: Cell growth inhibition %. How it is done: as §1, §2
In the next experiment the test system is UO-31. In words: NCI one-dose assay. The format is cell-based, human. The note with it: Homo sapiens, UO-31, UO-31, Renal cancer, read-out: Cell growth inhibition %. How it is done: as §1, §2
The test system of a further experiment is 786-0. In words: NCI one-dose assay. It counts as cell-based, human. The note with it: Homo sapiens, 786-0, 786-0, Renal cancer, read-out: Cell growth inhibition %. How it is done:
as §1, §2

The next experiment concerns COLO 205. Nature of the experiment: NCI one-dose assay. The format is cell-based. As to conditions: Homo sapiens, COLO 205, Colon cancer, read-out: Cell growth inhibition %.
A further experiment has as its system OVCAR-3. In words: NCI one-dose assay. The format is cell-based. The note with it: Homo sapiens, OVCAR-3, Ovarian cancer, read-out: Cell growth inhibition %.
Another experiment has as its system SN12C. In words: NCI one-dose assay. The note with it: Homo sapiens, Renal cancer, read-out: Cell growth inhibition %. The format is cell-based.
The next experiment concerns SNB-19. Nature of the experiment: NCI one-dose assay. The note with it: Homo sapiens, SNB-19, CNS cancer, read-out: Cell growth inhibition %. It counts as cell-based.
The next experiment concerns CCRF-CEM. In words: NCI one-dose assay. It counts as cell-based. The note with it: Homo sapiens, Leukemia, read-out: Cell growth inhibition %.
For a further experiment, the system named is NCI-H23. Nature of the experiment: NCI one-dose assay. It counts as cell-based. The note with it: Homo sapiens, NCI-H23, Non-small cell lung cancer, read-out: Cell growth inhibition %.
The test system of the next experiment is DU-145. In words: NCI one-dose assay. It counts as cell-based. As to conditions: Homo sapiens, DU-145, Prostate cancer, read-out: Cell growth inhibition %.
Another experiment deals with SK-MEL-2. Nature of the experiment: NCI one-dose assay. As to conditions: Homo sapiens, SK-MEL-2, Melanoma, read-out: Cell growth inhibition %. It counts as cell-based.
The test system of another experiment is MOLT-4. Nature of the experiment: NCI one-dose assay. The format is cell-based. The note with it: Homo sapiens, MOLT-4, Leukemia, read-out: Cell growth inhibition %.
A further experiment concerns OVCAR-5. Nature of the experiment: NCI one-dose assay. It counts as cell-based. The note with it: Homo sapiens, OVCAR-5, Ovarian cancer, read-out: Cell growth inhibition %.
The next experiment relates to HCT-15. In words: NCI one-dose assay. The format is cell-based. The note with it: Homo sapiens, HCT-15, Colon cancer, read-out: Cell growth inhibition %.
The test system of a further experiment is HOP-62. In words: NCI one-dose assay. It counts as cell-based. The note with it: Homo sapiens, HOP-62, Non-small cell lung cancer, read-out: Cell growth inhibition %.
Another experiment concerns RXF 393. In words: NCI one-dose assay. The format is cell-based. As to conditions: Homo sapiens, RXF 393, Renal cancer, read-out: Cell growth inhibition %.
The test system of the next experiment is PC-3. In words: NCI one-dose assay. The format is cell-based. As to conditions: Homo sapiens, PC-3, Prostate cancer, read-out: Cell growth inhibition %.
For a further experiment, the system named is EKVX. In words: NCI one-dose assay. The format is cell-based. The note with it: Homo sapiens, Non-small cell lung cancer, read-out: Cell growth inhibition %.
In the next experiment the test system is NCI/ADR-RES. In words: NCI one-dose assay. It counts as cell-based. As to conditions: Homo sapiens, Ovarian cancer, read-out: Cell growth inhibition %.
For the next experiment, the system named is HCT-116. In words: NCI one-dose assay. The format is cell-based. The note with it: Homo sapiens, HCT-116, Colon cancer, read-out: Cell growth inhibition %.
For the next experiment, the system named is SF-268. In words: NCI one-dose assay. It counts as cell-based. As to conditions: Homo sapiens, SF-268, CNS cancer, read-out: Cell growth inhibition %.
The next experiment has as its system SW-620. In words: NCI one-dose assay. The format is cell-based. The note with it: Homo sapiens, SW-620, Colon cancer, read-out: Cell growth inhibition %.

As for `C=CCn1c(SC/C(=N\O)c2ccccc2)nnc1-c1c[nH]c2ccccc12` [Compound 7a, (Z)-2-((4-Allyl-5-(1H-indol-3-yl)-4H-1,2,4-triazol-3-yl)thio)-1-phenylethanone Oxime], the “anticancer activity (in words)” value in the experiment on NCI 60 cell lines is reported as “minimal anticancer activity”. Further, the inhibition at 10 µM was 5.05% in the experiment with HOP-92; 20.9% in the experiment with UO-31; 4.91% in the experiment on 786-0; 2.04% with COLO 205; -14.9% in the experiment with OVCAR-3; 2.4% in the experiment with SN12C. The inhibition at 10 µM was 6.82% in the experiment with SNB-19; 0.66% with CCRF-CEM; -1.28% in the experiment with NCI-H23; -5.82% in the experiment with DU-145; -6.77% with SK-MEL-2; 2.51% in the experiment on MOLT-4. Besides, the inhibition at 10 µM is -3.15% in the experiment on OVCAR-5; 4.41% with HCT-15; 9.66% in the experiment with HOP-62; -4.5% with RXF 393; 9.77% in the experiment with PC-3; 5.6% with EKVX. In addition, the inhibition at 10 µM is -6.66% with NCI/ADR-RES, 9.24% in the experiment with HCT-116, -7.26% with SF-268 and 0.27% with SW-620.
With `C=CCn1c(SC/C(=N\O)c2ccc(Cl)cc2)nnc1-c1c[nH]c2ccccc12` [Compound 7e, (Z)-2-((4-allyl-5-(1H-indol-3-yl)-4H-1,2,4-triazol-3-yl)thio)-1-(4-chlorophenyl) Ethanone Oxime], the inhibition at 10 µM in the experiment with NCI 60 cell lines (Homo sapiens, HL-60(TB), K-562, MOLT-4, HCT-116, UACC-62, UO-31, T-47D, MDA-MB-468, read-out: growth inhibition percentage, range) is 35 to 46.5%; in the experiment with HOP-92, 26.5%; in the experiment on UO-31 it was 39.5%; in the experiment with 786-0 it was 11.1%; with COLO 205 it was 0.1%; with OVCAR-3, -7.49%. In addition, the inhibition at 10 µM was 14.9% with SN12C; 12.6% with SNB-19; 17.2% with CCRF-CEM; 17.4% with NCI-H23; 5.88% in the experiment on DU-145; 3.64% in the experiment on SK-MEL-2. The inhibition at 10 µM in the experiment on MOLT-4 was 40%; in the experiment with OVCAR-5 it was -2.62%; with HCT-15, 21.7%; in the experiment with HOP-62, 7.33%; in the experiment on RXF 393, 5.62%; in the experiment on PC-3 it was 24.4%. Further, the inhibition at 10 µM with EKVX was 27.1%; in the experiment with NCI/ADR-RES it was 3.86%; in the experiment on HCT-116, 36.1%; with SF-268, -1.1%; with SW-620, 9.5%.
Take `C=CCn1c(SCC(=O)c2ccc(OC)cc2)nnc1-c1c[nH]c2ccccc12` [Compound 6b, 2-((4-Allyl-5-(1H-indol-3-yl)-4H-1,2,4-triazol-3-yl)thio)-1-(4-methoxyphenyl) Ethenone]: in the experiment with NCI 60 cell lines, the “anticancer activity (in words)” value is reported as “minimal anticancer activity”. For the same molecule, the inhibition at 10 µM in the experiment on HOP-92 was 17.3%; with UO-31, 26.9%; with 786-0, -1.31%; in the experiment with COLO 205, 2.83%; with OVCAR-3, -16.9%; with SN12C it was 3.73%. The inhibition at 10 µM with SNB-19 is -1.42%; in the experiment with CCRF-CEM it was 8.66%; in the experiment on NCI-H23, 5.52%; in the experiment with DU-145, -11.8%; in the experiment on SK-MEL-2, -33.2%; in the experiment with MOLT-4, 6.64%. Moreover, the inhibition at 10 µM is -2.88% in the experiment with OVCAR-5; 2.44% in the experiment on HCT-15; 6.07% with HOP-62; -5.88% with RXF 393; 20.3% with PC-3; 3.03% in the experiment with EKVX. Further, the inhibition at 10 µM in the experiment on NCI/ADR-RES is -3.74%; in the experiment on HCT-116 it was 5.43%; in the experiment with SF-268, -8.99%; in the experiment on SW-620, 0.51%.
In the case of `C=CCn1c(SCC(=O)c2ccc(Cl)cc2)nnc1-c1c[nH]c2ccccc12` [Compound 6e, 2-((4-Allyl-5-(1H-indol-3-yl)-4H-1,2,4-triazol-3-yl)thio)-1-(4-chlorophenyl)ethenone], in the experiment with NCI 60 cell lines, the “anticancer activity (in words)” value is listed as “minimal anticancer activity”. Also, the inhibition at 10 µM is 21% with HOP-92; 28.5% with UO-31; 3.55% in the experiment on 786-0; -11.1% in the experiment on COLO 205; -12.2% in the experiment on OVCAR-3; 4.38% with SN12C. The inhibition at 10 µM in the experiment with SNB-19 was 0.6%; in the experiment with CCRF-CEM, 2.28%; with NCI-H23, -7.09%; in the experiment on DU-145, -14.4%; in the experiment with SK-MEL-2, -17.1%; in the experiment on MOLT-4, 10.6%. The inhibition at 10 µM in the experiment with OVCAR-5 is -5.38%; with HCT-15, 6.28%; in the experiment with HOP-62 it was 4.08%; in the experiment with RXF 393 it was -9.22%; in the experiment with PC-3, 22.3%; in the experiment on EKVX it was 8.21%. Besides, the inhibition at 10 µM in the experiment with NCI/ADR-RES is -2.31%; in the experiment with HCT-116 it was 6.8%; in the experiment on SF-268, -4.81%; in the experiment on SW-620 it was -2.66%.
For `C=CCn1c(SCC(=O)c2ccc(Br)cc2)nnc1-c1c[nH]c2ccccc12` [Compound 6d, 2-((4-Allyl-5-(1H-indol-3-yl)-4H-1,2,4-triazol-3-yl)thio)-1-(4-bromophenyl)ethenone], in the experiment with NCI 60 cell lines, the “anticancer activity (in words)” value is given as “minimal anticancer activity”. Also, the inhibition at 10 µM in the experiment with HOP-92 is 8.6%; in the experiment with UO-31, 31.6%; with 786-0, 1.44%; in the experiment with COLO 205, -7.53%; with OVCAR-3 it was -10.4%; in the experiment with SN12C it was 4.39%. Further, the inhibition at 10 µM in the experiment with SNB-19 was -0.26%; with CCRF-CEM it was 2.08%; in the experiment with NCI-H23, 4.98%; in the experiment with DU-145, -6.19%; with SK-MEL-2, -15.3%; with MOLT-4, 8.82%. Also, the inhibition at 10 µM was 3.19% with OVCAR-5; 0.98% in the experiment on HCT-15; -2.78% with HOP-62; -12.8% in the experiment with RXF 393; 21.7% in the experiment with PC-3; 7.22% with EKVX. Also, the inhibition at 10 µM with NCI/ADR-RES was 1.17%; in the experiment on HCT-116 it was 6.53%; with SF-268 it was -1.95%; with SW-620 it was -10.2%.
